One data set has as its system rats. The experiment in a line: FCA (Freund's Complete Adjuvant)-induced inflammatory mechanical hyperalgesia. It is filed as in vivo, rat. The settings on record: for maximum efficacy against FCA-induced mechanical hyperalgesia: rats. From the text: (§1) The illustrative examples of the present invention are screened for ‘in vivo’ TRPA1 based efficacy in various models of pain/hyperalgesia according to modified procedures described in (a) McNamara C R et al., PNASU (2007), 104, 13525-13530 (b) Eid S R et al., Molecular Pain, (2008), 4, 48 (c) Bennett G J and Xie Y K, Pain (1988), 33, 87-107. The screening of the compounds can also be carried out by some other methods and procedures known to persons skilled in the art.
FCA (Freund's Complete Adjuvant)-Induced Inflammatory Hyperalgesia
Freund's Complete Adjuvant (FCA), containing heat killed, dried Mycobaterium tuberculosis (1 mg/ml) emulsified in mineral oil and mannide monooleate, when injected (30 μl) into the plantar region of the paw of mice and rats induces an inflammatory hyperalgesia. Mechanical hyperalgesia (24 h after injection) was assessed by measuring hind paw withdrawal thresholds to an increasing pressure (g) stimulus, using the Randall-Sellitto analgesymeter (37215, Ugo Basile, Italy) fitted with a wedge-shaped probe.

Data set [1] has as its system male SD rats. The data set can be described thus: Chronic Constriction Injury (CCI)-induced neuropathic pain (Bennett's model). It is filed as in vivo, rat.
Description: as §1
Chronic Constriction Injury (CCI)-Induced Neuropathic Pain (Bennett's Model)
Chronic constriction injury (CCI) of sciatic nerve in rats and mice induces inflammatory mechanical hyperalgesia in this Bennet's neuropathic pain model. Rats were anesthetized using ketamine/xylazine (40/5 mg/kg, i.p.) and the left sciatic nerve was exposed at mid thigh level through a small incision. Four loose ligatures of 4-0 chromic cat gut (Ethicon-Johnson & Johnson) at 1 mm space were placed around the sciatic nerve […] of common sciatic nerve. After 6-7 days, mechanical hyperalgesia was assessed by measuring hind paw withdrawal thresholds to an increasing pressure (g) stimulus, using the Randall-Sellitto analgesymeter (Ugo Basile, Italy), fitted with a wedge-shaped probe.

A short description of data set [2]: Plasma levels after oral dosing in the rat pain models. It counts as in vivo. Particulars: for concentration at 2 h / concentration at 4 h: Sprague-Dawley, AITC model; for concentration at 2 h: p.o.
Data set [3] has as its target T1, Human TRPA1 expressing CHO cells (Homo sapiens, UniProt O75762).
T1 construct: expressed in transfected cells; host or cells: CHO cells (under G-418 selection)
The data set can be described thus: 45Calcium uptake assay: inhibition of AITC induced cellular uptake of radioactive calcium. It counts as cell-based. The settings on record: AITC 30 μM, human TRPA1 CHO cells; for inhibition at 1 µM: 1.0 μM test compound, read-out: Percentage inhibition at 1.0 μM; for inhibition at 10 µM: 10.0 μM test compound, read-out: Percentage inhibition at 10.0 μM; for IC50: read-out: IC50 value (range). A digest of the protocol: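 CHO cells expressing human TRPA1 were preincubated 10 min with compound (0.5% DMSO final), then stimulated 3 min with 30 μM AITC plus 5 μCi/ml 45Ca2+. Lysate radioactivity gave % of maximal uninhibited response; IC50 by nonlinear regression.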

Data set [4] concerns male SD rats. The data set can be described thus: Formalin-induced nocifensive behaviour. It counts as in vivo, rat. Particulars: 10 mg/kg, p.o., given 1.5 h (compound 10) or 3 h (compound 37) prior to formalin (2.5%).
Description: as §1
Formalin-Induced Nocifensive Behaviour
Formalin also induces nocifensive behaviour (paw flinching and licking responses) in rats and mice. TRPA1-deficient mice show marked attenuation of characteristic paw flinching and licking responses as a result of intraplantar injection of formalin in a characteristic early and late phase manner. This model also serves as a selective TRPA1 based mechanistic model.
Compound 10 and compound 37 inhibited the formalin-induced nocifensive licking behaviour in both early & late phases in male SD rats.

Data set [5] has as its system male SD rats. The data set can be described thus: AITC-induced nocifensive behaviour in rats. It is filed as in vivo, rat. Particulars: 10 mg/kg, p.o., AITC 5%.
Description: as §1
AITC-Induced Nocifensive Behaviour in Rats
Allyl isothiocyanate (AITC), a selective activator of TRPA1 receptor channel, induces nocifensive behavior (paw flinching and licking responses) in rats. The number of flinches and licking responses were counted for 45 min following the injection of 5% AITC into the plantar region of the paw. AITC being an activator of TRPA1 receptor, this model serves as a mechanistic validation for screened molecules as selective antagonists at TRPA1 channel receptor.

Setting [6] is: rat, plasma, oral, 10 mg/kg, male SD rats.

Where two headings read alike, the source gives them in different places.

T1 sequence (O75762 whole entry): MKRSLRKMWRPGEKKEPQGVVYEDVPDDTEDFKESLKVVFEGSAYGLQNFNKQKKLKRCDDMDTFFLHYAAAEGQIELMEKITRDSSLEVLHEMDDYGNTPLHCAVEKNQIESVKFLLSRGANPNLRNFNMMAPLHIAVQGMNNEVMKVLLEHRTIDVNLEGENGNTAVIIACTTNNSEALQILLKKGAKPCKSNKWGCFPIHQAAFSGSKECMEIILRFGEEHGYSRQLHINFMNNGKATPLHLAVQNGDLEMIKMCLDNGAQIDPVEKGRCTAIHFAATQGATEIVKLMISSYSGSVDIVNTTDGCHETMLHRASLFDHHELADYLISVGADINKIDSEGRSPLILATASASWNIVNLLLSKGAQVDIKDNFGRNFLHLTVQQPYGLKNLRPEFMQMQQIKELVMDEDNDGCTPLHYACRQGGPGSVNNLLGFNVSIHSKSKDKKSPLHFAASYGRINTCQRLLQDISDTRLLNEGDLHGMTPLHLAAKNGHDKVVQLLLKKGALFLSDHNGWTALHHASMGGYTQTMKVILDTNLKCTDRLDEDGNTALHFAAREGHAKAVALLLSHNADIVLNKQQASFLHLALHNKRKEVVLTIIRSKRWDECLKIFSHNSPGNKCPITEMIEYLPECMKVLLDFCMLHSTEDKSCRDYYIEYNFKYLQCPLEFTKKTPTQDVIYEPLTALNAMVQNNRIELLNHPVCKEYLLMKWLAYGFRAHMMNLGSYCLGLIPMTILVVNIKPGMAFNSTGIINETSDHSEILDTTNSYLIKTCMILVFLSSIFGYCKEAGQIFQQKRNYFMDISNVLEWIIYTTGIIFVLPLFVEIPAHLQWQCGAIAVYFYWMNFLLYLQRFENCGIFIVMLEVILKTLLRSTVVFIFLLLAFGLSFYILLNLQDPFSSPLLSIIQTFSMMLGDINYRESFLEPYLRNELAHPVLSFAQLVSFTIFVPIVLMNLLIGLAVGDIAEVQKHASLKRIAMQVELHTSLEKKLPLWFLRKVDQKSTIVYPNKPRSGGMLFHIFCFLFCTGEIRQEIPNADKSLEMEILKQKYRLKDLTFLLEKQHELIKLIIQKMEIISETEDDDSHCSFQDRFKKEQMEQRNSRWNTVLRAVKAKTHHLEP

One may read the ED50 as the dose that gives a 50% effect, or the effect in half of the subjects. Broadly, the inhibition is the drop in the measured response relative to a control, in per cent. For orientation: IC50 means the midpoint of a concentration-inhibition curve. For the compound `Cn1c(=O)c2c(CC(=O)Nc3nc(-c4ccc(Cl)cc4)cs3)cccc2n(C)c1=O` [Example 10], in the data set with rats (10 mg/kg, p.o.), the “maximum efficacy against FCA-induced mechanical hyperalgesia” value worked out at 81%. Further, the median effective dose (ED50) in the data set on rats (Rattus norvegicus, po, doses 1, 3, 6 and 10 mg/kg) came out at 2.7 mg/kg; with male SD rats [1] (Rattus norvegicus, read-out: ED50, CCI-induced neuropathic hyperalgesia), 3.5 mg/kg. Moreover, in the data set on male SD rats [1] (10 mg/kg, acute and chronic administration), the “maximum efficacy, reversal of CCI-induced hyperalgesia” value was found to be 75%. The compound further yielded a plasma levels in data set [2] (10 mg/kg, CCI model, male SD rats) of 5100 ng/mL. Further, the concentration at 2 h in data set [2] (rat, plasma, oral, 3 mg/kg, male SD rats, read-out: Plasma levels at 2 h) is 2080 ng/mL; in data set [2] (rat, plasma, oral, 10 mg/kg, male SD rats, read-out: Plasma levels at 2 h), 7380 ng/mL; in data set [2] (rat, plasma, oral, 3, 5 and 10 mg/kg, male SD rats, read-out: plasma levels at 2 h post-dose (range over doses)), 2080 to 7380 ng/mL. For the same compound, in data set [2] (rat, plasma, oral, 10 mg/kg, FCA model, rats), the concentration at 0.5 h stood at 3500 ng/mL. For the same compound, in data set [3], the inhibition at 1 µM was 99.7%. For the same compound, the inhibition at 10 µM in data set [3] turned out to be 99.9%. Also, in data set [3], the IC50 fell in the range of 50.1 to 100 nM. The “inhibition of the early phase nocifensive behaviour” value in the data set on male SD rats [4] amounted to 58%. In the data set on male SD rats [4], the “inhibition of the late phase nocifensive behaviour” value is listed as 58%.
In the case of `Cn1c(=O)c2c(CC(=O)Nc3nc(-c4cccc(C(F)(F)F)c4)cs3)cccc2n(C)c1=O` [Example 15, N1-[4-(3-Trifluoromethylphenyl)-1,3-thiazol-2yl]-2-(1,3-dimethyl-2,4-dioxo-1,2,3,4-tetrahydro-5-quinazolinyl)acetamide], in the data set with rats (30 mg/kg (p.o.)), the “maximum efficacy against FCA-induced mechanical hyperalgesia” value is about 70%. In data set [2] (setting [6]), this compound gave a concentration at 4 h of 9800 ng/mL. For the same compound, in data set [2] (rat, plasma, oral, 30 mg/kg (p.o.), FCA model, rats), the concentration at 1 h worked out at 3430 ng/mL. For the same compound, in the data set with male SD rats [5], the “inhibition of AITC induced flinching” value is 59%. In data set [3], the inhibition at 1 µM was found to be 98%, the inhibition at 10 µM is 100% and the IC50 was under 50 nM.
On to `Cn1c(=O)c2c(CC(=O)Nc3nc(-c4ccc(C(F)(F)F)c(F)c4)cs3)cccc2n(C)c1=O` [Example 37, N1-[4-(3-Fluoro-4-trifluoromethylphenyl)-1,3-thiazol-2-yl]-2-(1,3-dimethyl-2,4-dioxo-1,2,3,4-tetrahydro-5-quinazolinyl)acetamide], for which, in data set [2] (setting [6]), the concentration at 4 h came to 6200 ng/mL. Also, the “inhibition of AITC induced flinching” value with male SD rats [5] came out at 39%. In addition, in data set [3], the inhibition at 1 µM amounted to 97.5%, the inhibition at 10 µM turned out to be 99.4% and the IC50 was under 50 nM. In the data set with male SD rats [4], the “inhibition of the early phase nocifensive behaviour” value is on record as 18% and the “inhibition of the late phase nocifensive behaviour” value came to 59%.
Regarding `Cn1c(=O)c2c(CC(=O)Nc3nc(-c4cc(F)c(OCC5CC5)c(F)c4)cs3)cccc2n(C)c1=O` [Example 72, N1-[4-(4-Cyclopropylmethoxy-3,5-difluorophenyl)-1,3-thiazol-2-yl]-2-(1,3-dimethyl-2,4-dioxo-1,2,3,4-tetrahydroquinazolin-5-yl)acetamide], in data set [3], the inhibition at 1 µM amounted to 95.4%, the inhibition at 10 µM was 96.5% and the IC50 is under 50 nM.
For `Cn1c(=O)c2c(CC(=O)Nc3nc(-c4c[nH]c5ccccc45)cs3)cccc2n(C)c1=O` [Example 73, N1-[4-(1H-3-Indolyl)-1,3-thiazol-2-yl]-2-(1,3-dimethyl-2,4-dioxo-1,2,3,4-tetrahydro-5-quinazolinyl)acetamide], in data set [3], the inhibition at 1 µM turned out to be 32.5% and the inhibition at 10 µM amounted to 72.6%.
Regarding `Cn1c(=O)c2c(CC(=O)Nc3nc(-c4cn(C)c5ccccc45)cs3)cccc2n(C)c1=O` [Example 74], in data set [3], the inhibition at 1 µM worked out at 96.3%, the inhibition at 10 µM stood at 97.7% and the IC50 is over 100 nM.
As for `Cn1c(=O)c2c(CC(=O)Nc3nc4ccccc4s3)cccc2n(C)c1=O` [Example 75], in data set [3], the inhibition at 1 µM came to 5.6% and the inhibition at 10 µM was determined as 30.5%.
As to `Cn1c(=O)c2c(CC(=O)Nc3nc4ccc(F)cc4s3)cccc2n(C)c1=O` [Example 76, N1-[6-Fluorobenzo[d][1,3]thiazol-2-yl)-2-(1,3-dimethyl-2,4-dioxo-1,2,3,4-tetrahydro-5-quinazolinyl)acetamide], in data set [3], the inhibition at 1 µM stood at 33% and the inhibition at 10 µM came out at 28.5%.
As to `Cc1cc2nc(NC(=O)Cc3cccc4c3c(=O)n(C)c(=O)n4C)sc2cc1C` [Example 77, N1-(5,6-Dimethylbenzo[d][1,3]thiazol-2-yl)-2-(1,3-dimethyl-2,4-dioxo-1,2,3,4-tetrahydro-5-quinazolinyl)acetamide], in data set [3], the inhibition at 1 µM is 49.1% and the inhibition at 10 µM came to 95.5%.
In the case of `Cn1c(=O)c2c(CC(=O)Nc3nc4c(s3)CCc3cc(Cl)ccc3-4)cccc2n(C)c1=O` [Example 78], in data set [3], the inhibition at 1 µM stood at 59.8%, the inhibition at 10 µM amounted to 90.3% and the IC50 is over 100 nM.
Turning to `Cn1c(=O)c2c(CC(=O)Nc3cc(-c4ccc(Cl)cc4)n[nH]3)cccc2n(C)c1=O` [Example 79, N1-[3-(4-Chlorophenyl)-1H,5-pyrazolyl]-2-(1,3-dimethyl-2,4-dioxo-1,2,3,4-tetrahydro-5-quinazolinyl)acetamide], in data set [3], the inhibition at 1 µM is 3.81% and the inhibition at 10 µM came to 8.12%.
Consider `Cn1c(=O)c2c(CC(=O)Nc3ccn(-c4ccc(Cl)cc4)n3)cccc2n(C)c1=O` [Example 80, N1-[1-(4-Chlorophenyl)-1H,3-pyrazolyl]-2-(1,3-dimethyl-2,4-dioxo-1,2,3,4-tetrahydro-5-quinazolinyl)acetamide], for which, in data set [3], the inhibition at 1 µM stood at 97.2%, the inhibition at 10 µM was 99.7% and the IC50 was in the range of 50.1 to 100 nM.
For `Cn1c(=O)c2c(CC(=O)Nc3ccn(-c4cccc(C(F)(F)F)c4)n3)cccc2n(C)c1=O` [Example 81, N1-[1-(3-Trifluoromethylphenyl)-1H-3-pyrazolyl]-2-(1,3-dimethyl-2,4-dioxo-1,2,3,4-tetrahydro-5-quinazolinyl)acetamide] the same measures were 97.1%, 99.6% and 50.1 to 100 nM.
In the case of `Cn1c(=O)c2c(CC(=O)Nc3ccn(-c4ccc(Cl)cc4F)n3)cccc2n(C)c1=O` [Example 82, N1-[1-(4-Chloro-2-Fluorophenyl)-1H-3-pyrazolyl]-2-(1,3-dimethyl-2,4-dioxo-1,2,3,4-tetrahydro-5-quinazolinyl)acetamide], in data set [3], the inhibition at 1 µM stood at 76.7%, the inhibition at 10 µM was determined as 90.7% and the IC50 is over 100 nM.
In the case of `Cn1c(=O)c2c(CC(=O)Nc3nnc(-c4ccc(Br)cc4)s3)cccc2n(C)c1=O` [Example 83, N1-[5-(4-Bromophenyl)-1,3,4-thadiazol-2-yl]-2-(1,3-dimethyl-2,4-dioxo-1,2,3,4-tetrahydro-5-quinazolinyl)acetamide], in data set [3], the inhibition at 1 µM turned out to be 5.49% and the inhibition at 10 µM was determined as 3.46%.

Values taken from patent publication US7951814B2, “Quinazolinedione derivatives as TRPA1 modulators” (Glenmark Pharmaceuticals, S.A., priority 2008, dated 2011).
